Results from publication PMC9019904, “AD Informer Set: Chemical tools to facilitate Alzheimer's disease drug discovery” (Alzheimer's & Dementia : Translational Research & Clinical …, 2022).

Tests used:
[1] = test system: HMC3 (human microglia) cell line; assay: pHrodo-myelin phagocytosis/cell viability high content imaging assay: phagocytosis signal; assay type: cell-based; conditions: HMC3 cells, 10 uM compound, 48 hours treatment, pHrodo-myelin final 20 hours
Outline: (§1)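 HCI read-out ~22 h post pHrodo-myelin; phagocytosis + viability simultaneously; 3 parameters extracted; intensity up = early apoptosis, down = later apoptosis.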

[2] = test system: BV2 (mouse microglia) cell line; assay: as above; assay type: cell-based; conditions: BV2 cells, 10 uM compound, 48 hours treatment, pHrodo-myelin final 20 hours
Outline: as §1

[3] = test system: HMC3 (human microglia) cell line; assay: pHrodo-myelin phagocytosis/cell viability high content imaging assay: viability (cell count, nuclear area, nuclear intensity); conditions: HMC3 cells, 10 uM compound, 48 hours treatment
Outline: (§2)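 Immortalized microglia are treated with compound (10 μM, single concentration) for 48 h, the final 20 h alongside pHrodo-myelin. Data are the mean of duplicates, reported as % of untreated control.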

[4] = test system: BV2 (mouse microglia) cell line; assay: as above; conditions: BV2 cells, 10 uM compound, 48 hours treatment
Outline: as §2

| SMILES | 4. Phagocytosis (% control) [1] | 4. Phagocytosis (% control) [2] | 1. Cell count (% control) [3] | 2. Nuclear Area (% Control) [3] | 3. Nuclear DNA Intensity (% control) [3] | 1. Cell count (% control) [4] | 2. Nuclear Area (% Control) [4] | 3. Nuclear DNA Intensity (% control) [4] |
| --- | --- | --- | --- | --- | --- | --- | --- | --- |
| Cc1cc2c(cc1-c1cc(/C=C\C(=O)O)ccc1O)C(C)(C)CCC2(C)C [UNC10302903A] | 96.9 % control | 143.5 % control | 106.9 % control | 99.9 % Control | 95.8 % control | 102.7 % control | 107.7 % Control | 96.7 % control |
| Cc1cc2c(cc1C1(c3ccc(C(=O)O)cn3)CC1)C(C)(C)CCC2(C)C [UNC10302904A] | 73.6 % control | 105.9 % control | 110.6 % control | 108.2 % Control | 90.0 % control | 72.5 % control | 111.9 % Control | 92.6 % control |
| COc1cc(/C=C/c2ccc(NC(=O)/C=C/c3cc(OC)c(OC)c(OC)c3)cc2)cc(OC)c1 [UNC10302905A] | 65.4 % control | 64.0 % control | 87.3 % control | 107.2 % Control | 109.8 % control | 33.3 % control | 95.8 % Control | 130.4 % control |
| Cc1cc(C)nc(NC(=S)N2CCN(c3ccc(C(F)(F)F)cn3)CC2)c1 [UNC10302906A] | 109.8 % control | 184.1 % control | 134.6 % control | 95.0 % Control | 106.3 % control | 93.3 % control | 107.2 % Control | 105.6 % control |
| CCOC(=O)c1sc(NC(=O)c2ccco2)c(SC#N)c1C [UNC10302907A] | 29.4 % control | 201.8 % control | 96.1 % control | 63.3 % Control | 173.6 % control | 60.9 % control | 107.8 % Control | 107.1 % control |
| CCOC(=O)CS(=O)(=O)c1ccc([C@@H](CO)NC(=O)c2cc3c(Cl)c(Cl)c(C)cc3n2C)cc1 [UNC10302908A] | 53.1 % control | 249.0 % control | 71.6 % control | 75.5 % Control | 156.6 % control | 28.9 % control | 117.3 % Control | 97.5 % control |
| CCc1ccc(S(=O)(=O)c2ccccc2)cc1S(=O)(=O)NCCCN(C)C [UNC10302948A] | 143.6 % control | 187.1 % control | 127.5 % control | 97.8 % Control | 101.2 % control | 115.1 % control | 106.0 % Control | 108.0 % control |
| C=C(c1ccc(C(=O)O)cc1)c1cc2c(cc1C)C(C)(C)CCC2(C)C [UNC10302949A] | 79.3 % control | 117.0 % control | 131.9 % control | 99.3 % Control | 94.9 % control | 91.0 % control | 109.3 % Control | 95.6 % control |
| Cl.NCCOCCOCCNC(=O)Cc1ccc(Nc2nc(NCc3ccc(F)cc3)nc(NCC3CCCCC3)n2)cc1 [UNC10302950A] | 36.3 % control | 232.8 % control | 97.2 % control | 95.7 % Control | 118.1 % control | 46.4 % control | 117.0 % Control | 104.0 % control |
| CC(C)CCC[C@@H](C)[C@H]1CC[C@H]2[C@@H]3CC[C@H]4C[C@H](N)CC[C@]4(C)[C@H]3CC[C@]12C [UNC10302970A] | 40.9 % control | 160.9 % control | 97.2 % control | 81.8 % Control | 134.0 % control | 18.3 % control | 108.5 % Control | 93.1 % control |
| CCCCCOc1cc2c(cc1-c1cc(/C=C/C(=O)O)ccc1O)C(C)(C)CCC2(C)C [UNC10302971A] | 107.7 % control | 103.8 % control | 103.0 % control | 101.2 % Control | 101.8 % control | 104.0 % control | 103.5 % Control | 104.7 % control |
| Cc1c(COc2cc(OCc3cccc(C#N)c3)c(CN3C[C@H](O)C[C@@H]3C(=O)O)cc2Cl)cccc1-c1ccc2c(c1)OCCO2 [UNC10302972A] | 111.9 % control | 125.1 % control | 116.0 % control | 98.5 % Control | 101.3 % control | 81.0 % control | 106.7 % Control | 113.8 % control |
| N#CC(CCCN1CCN(/N=C/c2cccnc2)CC1)(c1ccccc1)c1ccccc1 [UNC10302973A] | 84.2 % control | 132.9 % control | 118.4 % control | 102.3 % Control | 89.1 % control | 73.0 % control | 106.0 % Control | 96.8 % control |
| Cl.O=C(O)Cc1cccc(OCCCN(Cc2cccc(C(F)(F)F)c2Cl)CC(c2ccccc2)c2ccccc2)c1 [UNC10302974A] | 78.3 % control | 136.8 % control | 138.8 % control | 100.4 % Control | 95.2 % control | 123.1 % control | 107.6 % Control | 102.2 % control |
| CCn1c(=O)/c(=C2\Sc3ccccc3N2C)s/c1=C\c1ccccn1 [UNC10302975A] | 87.9 % control | 118.8 % control | 120.1 % control | 99.3 % Control | 95.9 % control | 107.1 % control | 104.2 % Control | 108.3 % control |
| O=S(=O)(c1ccc2c(c1)C(=NO)c1cc(S(=O)(=O)N3CCCCC3)ccc1-2)N1CCCCC1 [UNC10302976A] | 12.0 % control | 51.8 % control | 69.8 % control | 63.2 % Control | 194.1 % control | 11.0 % control | 116.9 % Control | 256.7 % control |
| CCN(C)C(=O)Oc1cccc([C@H](C)N(C)C)c1 [UNC10303091A] | 80.4 % control | 166.0 % control | 141.4 % control | 98.9 % Control | 95.5 % control | 139.1 % control | 103.4 % Control | 100.1 % control |
| CN1C(N)=N[C@](C)(c2cc(NC(=O)c3ccc(F)cn3)ccc2F)CS1(=O)=O [UNC10303092A] | 104.7 % control | 127.2 % control | 119.4 % control | 99.5 % Control | 97.7 % control | 104.0 % control | 108.1 % Control | 102.5 % control |
| O=c1ncn2nc(Sc3ccc(F)cc3F)ccc2c1-c1c(Cl)cccc1Cl [UNC10303093A] | 71.1 % control | 151.8 % control | 125.9 % control | 98.4 % Control | 98.8 % control | 114.5 % control | 100.4 % Control | 110.5 % control |
| CC[C@H](C)[C@H](N)C(=O)NCCN1CCOCC1.Cl.Cl [UNC10303094A] | 75.5 % control | 157.3 % control | 133.1 % control | 103.2 % Control | 95.9 % control | 133.1 % control | 103.4 % Control | 103.6 % control |
